{
  "source": "patent US20090123512A1",
  "about": "“Quorum Sensing Modulators” (priority 2005, published 2009)",
  "tested_on": "MW1",
  "assay": "Elastase production in culture supernatant, MW1",
  "type": "cell-based, Pseudomonas aeruginosa",
  "method": "Elastase activity was measured according to the procedure described by Pearson et al. in J. Bacteriol. 179:5756-67 (1997) and pyocyanin concentration was measured according to the procedure described by Essar et al. in J. Bacteriol. 172:884-900 (1990). Protocols were modified slightly to be consistent with the conditions of transcriptional profiling. Cultures were grown in LB amended with 50 mM MOPS pH 7.0. Mid-log cultures were either subcultured directly (MW1) or washed twice with medium (PAO1) and then subcultured to an absorbance at 600 nm (A600) of 0.01. Cultures (1 mL) were grown in the presence of test compounds in 16 mm tubes at 37° C., 250 rpm.\nFor elastase activity, cultures were grown for 6 hours. Cells were removed by centrifugation and the culture supernatant filtered through a 0.2 μm filter. A 100 μL volume of filtered supernatant was added to 900 μL of 5 mg/mL Elastin Congo Red (Elastin Products Company; Owensville, Mo.) in 1 mM CaCl2, 100 mM Tris HCL, pH 7.2. Reactions were incubated at 37° C., 250 rpm for 18 h. Reactions were stopped by the addition of 100 μL 0.12 M EDTA, undigested substrate removed through centrifugation and the absorbance at 495 nm measured.",
  "data": [
    {"smiles": "CCCC(=O)N[C@H]1CCOC1=O", "note": "[Compound C4-HSL, butyryl homoserine lactone]", "values": [
      {"measurement": "elastase activity in supernatant restored by exogenous signal", "setting": "MW1, 25 μM C4-HSL added to 0.3 μM 3-oxo-C12-HSL", "result": "maximal elastase activity was measured"}
    ]},
    {"smiles": "CCCCCCCCCC(=O)CC(=O)NC1CCOC1=O", "note": "(stereo not drawn) [3-oxo-C12-HSL, 3-oxo-dodecanoyl homoserine lactone]", "values": [
      {"measurement": "elastase activity in supernatant restored by exogenous signal", "setting": "MW1, 0.3 μM (half-maximal) 3-oxo-C12-HSL alone", "result": "restored about one third of the achievable activity"},
      {"measurement": "elastase activity in supernatant restored by exogenous signal", "setting": "MW1, saturating 3-oxo-C12-HSL (25 μM) in addition to saturating C4-HSL (25 μM)", "result": "did not increase elastase activity further"}
    ]}
  ]
}
